Laboratory results taken from US10882826B2, “Quinolinone or quinazolinone comprising antibiofilm compositions, compounds and methods and uses relating thereto” (University College Cork—National University of Ireland, priority 2015, dated 2021).

What was measured:
[1] = tested on: C. albicans strain SC5314 biofilm; test: XTT metabolic assay of C. albicans biofilm; type: cell-based, Candida albicans; conditions: for XTT result, Mean (MeOH control = 1) / Absorbance at 492 nm, Mean (XTT): C. albicans biofilm; for Absorbance at 492 nm, Mean (XTT): test compound 100 μM, 24 hr, MeOH control 0.647, untreated 0.851; for effectiveness against fungal biofilms formed by Candida albicans (in words): summary statement
Protocol: C. albicans strain SC5314 was sub-cultured from 15% (v/v) glycerol stocks at −80° C. onto Yeast Peptone Dextrose (YPD) medium [1% (w/v) yeast extract, 2% (w/v) peptone and 2% (w/v) dextrose] and incubated at 30° C. overnight.
The test compounds in desiccated form were re-suspended in Methanol to create a 10 mM stock. […]
The ability of some of the compounds detailed in example 1 to disrupt Candida albicans was tested using Confocal Scanning Laser Microscopy and an XTT Metabolic Assay. The XTT assay is a commonly used quantitative method assessing Candida biofilm mass and growth often in response to novel drug therapies.
C. albicans biofilm formation was carried out in 96 well plates by a method of the prior art. Briefly, C. albicans was inoculated into Yeast Nitrogen Base [10% (w/v)] and glucose/maltose [10% (w/v)] and incubated overnight at 30° C. Seeding densities for all subsequent experiments (N=3) were OD600=0.05. Cells were grown in Yeast Nitrogen Base supplemented with 1 M Phosphate buffer and acetyl-D-glucosamine (YNB-NP) along with appropriate volumes of test compound to provide the desired concentration. Cells were cultured in 96 well plates for 1 hr at 37° C. to facilitate yeast attachment. After this incubation, the supernatants were aspirated, the wells washed twice with YNB-NP media, and fresh media with the same concentration of test compound added to the appropriate wells. The plate was incubated for 24 hr at 37° C. The next day, the cultures were aspirated and the wells washed once with YNB-NP media.
C. albicans biofilm quantification was carried out in 96 well plates using a semi-quantitative Tetrazolium salt, 2,3-bis-(2-methoxy-4-nitro-5-sulfophenyl)-2H tetrazolium-5-carboxanilide inner salt (XTT) reduction assay (Hawser, Tunney et al, Antimicrob Agents Chemother. 2004 May; 48(5):1879-81). XTT (0.01 g) was dissolved in sterile water (20 ml) and filter sterilized. 10 μl of Menadione dissolved in Acetone was added to the XTT solution, just before use. The XTT-Menadione Solution (100 μl) was added to each well. The plate was incubated in the dark at 37° C. for up to 2 hr to allow for colour development. The OD492 nm was recorded for each well. Experiments were repeated at least three times, with at least eight technical replicates.
Experiments were first carried out using the test compound at concentration of 100 μM.

[2] = tested on: IB3 lung epithelial cells; test: LDH release cytotoxicity, IB3-1 cells; type: cell-based; conditions: 100 μM, 16 hr, percentage of 0.1% Triton (100% cytotoxicity), MeOH 3.844
Protocol: Lactate dehydrogenase (LDH) release from IB3 lung epithelial cells was assayed as a measure of cytotoxicity using an LDH colorimetric kit (Roche) according to manufacturers' instructions. Briefly, IB3-1 cells were seeded onto 96 well plates and treated with methanol (control) and test compounds (100 μM). Following 16 hr incubation at 37° C. and 5% CO2, supernatants were removed and added to catalyst reaction mixture in a fresh plate and further incubated at 37° C. and 5% CO2 for 30 mins to allow for colour development. After this period, the plate was analysed on an ELISA plate reader at OD490 nm. Cytotoxicity was expressed as a percentage of cells treated with 0.1% (v/v) Triton (100% cytotoxicity).

[3] = tested on: P. aeruginosa PAO1 pqsA-pqsA-lacZ strain; test: Phenazine extraction (phenazine production); type: cell-based; conditions: PAO1 pqsA-pqsA-lacZ strain, test compounds 10 μM, 24 hr; methanol control 0.080
Protocol: (§1) P. aeruginosa strains, PAO1 and pqsA mutant, containing the chromosomally inserted pqsA-lacZ promoter fusion on plasmid pUC18-mini-Tn7, were sub-cultured from glycerol stocks onto LB agar plates, supplemented with Carbenicillin (200 μg/ml) and X-gal (40 μg/ml), and incubated at 37° C. overnight. Single colonies were inoculated into LB broth (20 ml), supplemented with Carbenicillin (200 μg/ml), and incubated at 37° C., shaking at 180 rpm overnight. For subsequent experiments, the OD600 nm was recorded and a starting OD600 nm of 0.02 was inoculated into fresh LB broth, supplemented with Carbenicillin (200 μg/ml) and incubated at 37° C., shaking at 180 rpm.
P. aeruginosa strains were cultured as described above for 24 hr, with the addition of test compounds (10 μM). Cultures were centrifuged at 4000 rpm for 10 minutes and the cell free supernatant (5 ml) removed. Chloroform (3 ml) was added, and mixed by vortex. After centrifugation at 4000 rpm for 5 mins, the lower aqueous phase was transferred to 0.2 M HCl (2 ml). Samples were mixed by vortex and centrifuged at 4000 rpm for 5 mins to separate the phases. An aliquot of the top phase (1 ml) was removed and spectrophotmetrically analysed at OD570 nm. Phenazine production was calculated using the following formula: OD570 nm×2×17.072 and the units expressed in μg/ml.
(§2) The phenazine production levels and Miller units in the PAO1 pqsA-pqsA-lacZ strain are detailed in table 5.
(§3) The virulence of compounds B2, C13 and C15 towards P. aeruginosa was assessed using an analogous method.

[4] = tested on: pqsA-lacZ promoter fusion; test: Promoter fusion based expression analysis (pqsA-lacZ, Miller units); type: cell-based, P. aeruginosa; conditions: PAO1 pqsA-pqsA-lacZ strain, 100 μM, overnight; methanol control 12287
Protocol: as §1
Promoter fusion analyses were performed in a 96-well format. Briefly, overnight cultures of wild-type PAO1 pqsA-lacZ (pLP0996) and mutant strain PAO1 pqsA^− pqsA-LacZ were diluted to OD600 nm=0.02 in LB. Test compounds at 100 μM final concentration were added, mixed, aliquoted into 96 well plates and incubated overnight at 37° C. with shaking. The next day, OD600 nm values were recorded in a plate reader. Aliquots of cells (0.02 ml) were permeabilised [100 mM dibasic sodium phosphate (Na2HPO4), 20 mM KCl, 2 mM MgSO4, 0.8 mg/mL CTAB (hexadecyltrimethylammonium bromide), 0.4 mg/mL sodium deoxycholate, 5.4 μL/mL beta-mercaptoethanol] and added to substrate solution [60 mM Na2HPO4, 40 mM NaH2PO4, 1 mg/mL o-nitrophenyl-β-D-Galactoside (ONPG), 2.7 μL/mL β-mercaptoethanol]. The kinetics of colour development was monitored and the reactions were stopped using 1M NaCO3. OD420 nm were recorded as above. Miller units were calculated using the following equation; 1000×[OD420 nm/(OD600 nm)×0.02 ml×reaction time (mins)].
as §2, §3

Row | Structure (SMILES) | XTT result, Mean (MeOH control = 1) ([1]; 10 μM) | XTT result, Mean (MeOH control = 1) ([1]; 50 μM) | XTT result, Mean (MeOH control = 1) ([1]; 100 μM) | Absorbance at 492 nm, Mean (XTT) [1] | effectiveness against fungal biofilms formed by Candida albicans (in words) [1] | % Cytotoxicity, Mean (LDH release) [2] [%] | Phenazine, Mean [3] [µg/mL] | Miller Units, Mean [4] [Miller Units]
1 | CCCCCCCc1nc2ccccc2c(=O)n1N [Compound C2] | 0.68 | 0.38 | 0.25 | 0.178 | effective | 28.94 | 0.541 | 16027
2 | CCCCCCCc1cc(=O)c2cc(Cl)ccc2[nH]1 [Compound C4] | 0.86 | 0.67 | 0.58 | 0.302 | effective | 15.46 | 0 | 35489
3 | CCCCCCCc1cc(=O)c2cccc(Cl)c2[nH]1 [Compound C5] | – | – | – | 0.242 | effective | 31.04 | 0 | 11940
